The source made the active and inactive calls. The calls are words filed in the database; no cut-off is given here.
Assays:
SARS-CoV [1] = test: microbe, parasite or virus in culture; details: Severe acute respiratory syndrome-related coronavirus, Frankfurt1, Vero
in vitro = details: chlorocebus sabaeus, Vero E6 cells
SARS-CoV [2] = assay type: functional, organism-based; details: Severe acute respiratory syndrome-related coronavirus; Frankfurt1; Vero; 50 to 70 uM
SARS-CoV [3] = assay type: functional, organism-based; details: Severe acute respiratory syndrome-related coronavirus; Frankfurt1; Vero; 20 uM
Vero = details: chlorocebus sabaeus

| Structure (SMILES) | IC50 (SARS-CoV [1]) | CC50 (in vitro) | further results |
| --- | --- | --- | --- |
| CSc1ncnc2c1ncn2[C@@H]1O[C@H](CO)[C@@H](O)[C@H]1O | > 300 µM |  |  |
| NC(=O)c1ncn([C@@H]2O[C@H](CO)[C@@H](O)[C@H]2O)c1O [MIZORIBINE] | 13.5 µM | > 700 µM |  |
| OCC(CCn1cnc2c(Cl)ncnc21)COCc1ccccc1 (stereo not given) | > 300 µM |  |  |
| OCC(CO)CCn1cnc2c(Cl)ncnc21 | > 300 µM |  |  |
| OCC1CC(n2cnc3c(Cl)ncnc32)C1CO (stereo not given) | > 300 µM |  |  |
| COc1ncnc2c1ncn2[C@@H]1O[C@H](CO)[C@@H](O)[C@H]1O | > 300 µM |  |  |
| OCC1C(COCc2ccccc2)CC1n1cnc2c(Cl)ncnc21 (stereo not given) | 14.5 µM | 78 µM | Activity (SARS-CoV [2]): Active |
| OC[C@@H]1C[C@@H](O)[C@H](n2cnc3c(Cl)ncnc32)O1 | > 300 µM |  |  |
| OC[C@H]1O[C@@H](n2cnc3c(Cl)ncnc32)C[C@@H]1O | > 300 µM |  |  |
| NC(=O)c1ncn([C@@H]2O[C@H](CO)[C@@H](O)[C@H]2O)n1 [RIBAVIRIN] | 82 µM | > 850 µM |  |
| Nc1nc(Cl)c2ncn([C@@H]3O[C@H](CO)[C@@H](O)[C@H]3O)c2n1 | > 300 µM |  |  |
| OC[C@H]1O[C@@H](n2cnc3c(Cl)ncnc32)[C@H](O)[C@@H]1O |  |  | Activity (SARS-CoV [3]): Active; CC50 (Vero): 279 µM |
| O[C@@H]1[C@H](O)[C@@H](COCc2ccccc2)O[C@H]1n1cnc2c(Cl)ncnc21 | 108 µM | 174 µM | Activity (SARS-CoV [2]): Active |
